Assay results: patent publication US20150050244A1, “Entomopathogenic Fungi and Uses Thereof” (priority 2008, published 2015)
“And” between values parts separate entries of the source, which are not always exact repeats. Equal values may be shown once.

Tested on: green pea aphid (Myzus persicae)
Assay: Aphid mortality on leaf discs, Potters tower, K4B3 extract versus beauvericin
Assay type: in vivo
Method: Table 7 below presents mortality observed amongst green pea aphid (Myzus persicae) present on Asian brassica leaf discs. Asian brassica leaf discs were placed on 1% water agar in Petri dishes. […] The sprayed Petri dishes were placed dorsal side down on paper towels to allow surfaces to dry. Five replicates of each treatment were done. Mortality was assessed 48 hours after application.

[1] = per replicate, 2 mL sprayed, 48 hours, beauvericin solution 50 μg/mL with 2.5 mL millennium oil/L
[2] = total of replicates, 2 mL sprayed, 48 hours

beauvericin
mortality compared with the water control (beauvericin alone, Table 7): not significantly different
aphid mortality (in words) (beauvericin even at 50,000 μg/L): very low
Alive Adult [1]: 0 (3×) and 8 and 10
Alive Juv. [1]: 0 (3×) and 22 and 28
Dead Adult [1]: 0 (4×) and 1
Dead Juv. [1]: 0 (3×) and 1 and 3
Total Alive Adult [2]: 18
Total Alive Juv. [2]: 50
Total Dead Adult [2]: 1
Total Dead Juv. [2]: 4
